One may read the Kb as the equilibrium dissociation constant of an antagonist, usually derived from a functional assay.

The results in this text go back to patent US4835159A, “Ergoline esters useful as serotonin antagonists” (Eli Lilly and Company, priority 1988, dated 1989).

This assay concerns the target T1, 5HT2 receptors (Rattus norvegicus, UniProt P14842).
T1 construct: external jugular veins and thoracic aortas were dissected free of connective tissue; from tissue; host or cells: isolated external jugular vein of male Wistar rats
The assay is described as follows: Apparent antagonist dissociation constant (KB) for 5HT2 receptors: serotonin-induced contraction of isolated jugular vein. Also noted: species or system rat (male Wistar). An excerpt:
Male Wistar rats, each weighing from approximately 150 g to about 300 g, were sacrificed and their external jugular veins and thoracic aortas were dissected free of connective tissue, cannulated in situ and placed in a modified Krebs' bicarbonate buffer in a suitable tissue bath. Two L-shaped 30-gauge stainlesssteel hypodermic needles were inserted into each cannula and the dissected vessels gently pushed onto the needles. One needle was attached with thread to a stationary glass rod and the other to the transducer. The modified Krebs' bicarbonate buffer was composed of the following ingredients in millimoles: sodium chloride, 118.2; potassium chloride, 4.6; calcium chloride dihydrate, 1.6; potassium dihydrogenphosphate, 1.2; magnesium sulfate, 1.2; dextrose, 10.0; sodium bicarbonate, 24.8; and water q.s. to 1000 g. The tissue baths were maintained at 37° C. and were aerated with 95% oxygen-5% carbon dioxide. An initial optimum resting force of 1 g and 4 g was applied to the jugular vein and aorta, respectively. Isometric contractions were recorded as changes in grams of force on a Beckman Dynograph with Statham UC-3 transducers and a microscale accessory attachment. Tissues were allowed to equilibrate 1 to 2 hours before exposure to the test compounds. Control responses to serotonin in the jugular vein and to norepinephrine in the aorta were obtained. The vessels were then incubated with appropriate concentrations of the test compound for one hour. Responses to serotonin or to norepinephrine were then repeated in the presence of the antagonist. Contraction to serotonin was evaluated in the jugular vein since this tissue is known to produce marked responses to serotonin in the absence of alpha receptors. See Cohen and Wiley, J. Pharm. Exp. Ther., 205, 400 (1978). Alpha receptor antagonist activity was evaluated in the aorta.
Apparent antagonist dissociation constants were determined for each concentration of antagonist according to the following equation: […]

Where a name gives a salt, the structure may show the parent alone. Read-outs that look alike come from different tables or passages of the source.

T1 sequence (P14842 whole entry): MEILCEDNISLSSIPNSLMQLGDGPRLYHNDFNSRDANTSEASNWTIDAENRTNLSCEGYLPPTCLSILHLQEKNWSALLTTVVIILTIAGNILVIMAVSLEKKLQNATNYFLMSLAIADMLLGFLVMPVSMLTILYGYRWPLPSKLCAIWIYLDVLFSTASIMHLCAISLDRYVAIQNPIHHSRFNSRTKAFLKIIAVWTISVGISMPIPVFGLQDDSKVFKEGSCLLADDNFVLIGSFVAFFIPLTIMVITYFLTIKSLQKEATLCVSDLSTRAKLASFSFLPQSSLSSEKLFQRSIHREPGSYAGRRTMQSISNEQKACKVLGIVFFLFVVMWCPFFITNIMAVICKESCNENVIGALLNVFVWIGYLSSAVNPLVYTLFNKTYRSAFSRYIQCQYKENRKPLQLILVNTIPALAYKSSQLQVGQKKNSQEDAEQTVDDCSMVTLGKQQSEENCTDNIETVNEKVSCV

`CC(C)n1cc2c3c(cccc31)[C@H]1C[C@@H](C(=O)OC3CCCC4C(O)CCCC34)CN(C)[C@@H]1C2` (stereo partly drawn) [Example 1, Decahydro-t-hydroxy-1-naphthalenyl 1-isopropyl-9,10-dihydrolysergate maleate]: the antagonist equilibrium constant (Kb) (rat jugular vein, contraction to serotonin, 1 hour incubation with test compound, 37° C., average of the number of trials, read-out: log KB ± standard error (-log KB, serotonin receptor activity) (converted)) was 0.224 nM.
Turning to `CC(C)n1cc2c3c(cccc31)[C@H]1C[C@@H](C(=O)OC3CCC4CCCCC4C3)CN(C)[C@@H]1C2` (stereo partly drawn) [Example 2, Decahydro-2-naphthalenyl 1-isopropyl-9,10-dihydrolysergate maleate], the Kb is less than 100 nM.
Still for that read-out and setting: to `CC(C)n1cc2c3c(cccc31)[C@H]1C[C@@H](C(=O)OC3CC4CC(O)CC4C3)CN(C)[C@@H]1C2` (stereo partly drawn) [Example 3, Octahydro-5-hydroxy-2-pentalenyl 1-isopropyl-9,10-dihydrolysergate hemihydrate] belongs 0.631 nM.
